In patent US12527325B2, “Pesticidally active diazine-amide compounds” (SYNGENTA CROP PROTECTION AG, priority 2019, dated 2026):

Key:
Format in all cases: in vivo
Diabrotica balteata = test: Example B1: Diabrotica balteata (Corn Root Worm); conditions: 96 h, application rate of 200 ppm, sprayed maize sprouts, L2 larvae, 4 days after infestation, read-out: control in at least one of the two categories (mortality or growth inhibition)
Method: Example B1: Diabrotica balteata (Corn Root Worm)
Maize sprouts placed onto an agar layer in 24-well microtiter plates were treated with aqueous test solutions prepared from 10′000 ppm DMSO stock solutions by spraying. After drying, the plates were infested with L2 larvae (6 to 10 per well). The samples were assessed for mortality and growth inhibition in comparison to untreated samples 4 days after infestation.

Chilo suppressalis = test: Example B4: Chilo suppressalis (Striped Rice Stemborer); conditions: 144 h, application rate of 200 ppm, artificial diet, L2 larvae, 6 days after infestation, read-out: control in at least one of the three categories (mortality, anti-feedant or growth inhibition)
Summary of the method: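 Artificial diet was treated with aqueous dilutions made from 10'000 ppm DMSO stocks, dried, then infested with L2 larvae at 6–8 per well. Mortality, antifeedant effect and growth inhibition were assessed against untreated samples 6 days after infestation.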

Spodoptera littoralis [1] = test: Example B9: Spodoptera littoralis (Egyptian Cotton Leaf Worm), cotton leaf disc spray; conditions: foliar, 72 h, application rate of 200 ppm, sprayed cotton leaf discs, L1 larvae, 3 days after infestation, read-out: control in at least one of the three categories (mortality, anti-feedant or growth inhibition)
Spodoptera littoralis [2] = test: Example B10: Spodoptera littoralis (Egyptian Cotton Leaf Worm), uptake by lettuce roots from agar; conditions: 144 h, test rate of 12.5 ppm, compound in agar absorbed by lettuce roots, eggs, 6 days after infestation, read-out: control in at least one of the three categories (mortality, anti-feedant, or growth inhibition)
From the text: Example B10: Spodoptera littoralis (Egyptian Cotton Leaf Worm)
Test compounds were applied by pipette from 10′000 ppm DMSO stock solutions into 24-well plates and mixed with agar. Lettuce seeds were placed onto the agar and the multi well plate was closed by another plate which contained also agar. After 7 days the compound was absorbed by the roots and the lettuce grew into the lid plate. The lettuce leaves were then cut off into the lid plate. Spodoptera eggs were pipetted through a plastic stencil onto a humid gel blotting paper and the lid plate was closed with it. The samples were assessed for mortality, anti-feedant effect and growth inhibition in comparison to untreated samples 6 days after infestation.

Plutella xylostella [3] = test: Example B5: Plutella xylostella (Diamond Back Moth); conditions: 192 h, application rate of 200 ppm, 24-well artificial diet, eggs, 8 days after infestation, read-out: control in at least one of the two categories (mortality or growth inhibition)
Method: Example B5: Plutella xylostella (Diamond Back Moth)
24-well microtiter plates with artificial diet were treated with aqueous test solutions prepared from 10′000 ppm DMSO stock solutions by pipetting. After drying, Plutella eggs were pipetted through a plastic stencil onto a gel blotting paper and the plate was closed with it. The samples were assessed for mortality and growth inhibition in comparison to untreated samples 8 days after infestation.

Plutella xylostella [4] = test: Example B12: Plutella xylostella (Diamondback Moth), 96-well artificial diet; conditions: 216 h, application rate of 500 ppm, eggs, 9 days after infestation
Method: Example B12: Plutella xylostella (Diamondback Moth)
96-well microtiter plates containing artificial diet were treated with aqueous test solutions, prepared from 10′000 ppm DMSO stock solutions, by a liquid handling robot. After drying, eggs (˜30 per well) were infested onto a netted lid which was suspended above the diet. The eggs hatch and L1 larvae move down to the diet. The samples were assessed for mortality 9 days after infestation.

CC(NC(=O)c1cc(C(F)(F)F)cc(C(F)(F)C2CC2)c1)c1nccnc1-c1ncc(C2CC2)cn1 (stereo not drawn) [P39, 3-[cyclopropyl(difluoro)methyl]-N-[1-[3-(5-cyclopropylpyrimidin-2-yl)pyrazin-2-yl]ethyl]-5-(trifluoromethyl)benzamide]
≥ 80%: percent control (mortality or growth inhibition) at 200 ppm (Diabrotica balteata) | percent control (mortality, anti-feedant effect or growth inhibition) at 200 ppm (Chilo suppressalis) | percent control (mortality, anti-feedant effect or growth inhibition) at 200 ppm (Spodoptera littoralis [1]) | percent control (mortality, anti-feedant effect or growth inhibition) at 12.5 ppm (Spodoptera littoralis [2]) | percent control (mortality or growth inhibition) at 200 ppm (Plutella xylostella [3]) | mortality at 500 ppm (Plutella xylostella [4])
